# Experimental data as given in patent publication US8754242B2, “Herbicides” (Syngenta Crop Protection LLC, priority 2007, dated 2014).
# Tests used:
# Type in all cases: in vivo
# [1] = system: Alopecurus myosuroides (ALOMY); test: Test Example 1 post-emergence herbicidal activity; conditions: 360 h, rate 125 g/ha, evaluated 15 days later, read-out: Post-emergence activity ALOMY (100=total damage to plant; 0=no damage to plant)
# Outline: (§1)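 Pots sown in standard soil were sprayed 1 day (pre-emergence) or 10 days (post-emergence) after sowing with an aqueous spray from an acetone/Emulsogen EL/N-methylpyrrolidone-based formulation. Visual damage was scored 20 days (pre) or 15 days (post) later in the greenhouse, 0 = none to 100 = total.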
# [2] = system: Setaria faberi (SETFA); test: Test Example 1 post-emergence herbicidal activity; conditions: 360 h, rate 125 g/ha, evaluated 15 days later, read-out: Post-emergence activity SETFA (100=total damage to plant; 0=no damage to plant)
# Outline: as §1
# [3] = system: Echinochloa crus-galli (ECHCG); test: Test Example 1 post-emergence herbicidal activity; conditions: 360 h, rate 125 g/ha, evaluated 15 days later, read-out: Post-emergence activity ECHCG (100=total damage to plant; 0=no damage to plant)
# Outline: as §1
# [4] = system: Digitaria sanguinalis (DIGSA); test: Test Example 1 post-emergence herbicidal activity; conditions: 360 h, rate 125 g/ha, evaluated 15 days later, read-out: Post-emergence activity DIGSA (100=total damage to plant; 0=no damage to plant)
# Outline: as §1
# [5] = system: Avena fatua (AVEFA); test: Test Example 1 post-emergence herbicidal activity; conditions: 360 h, rate 125 g/ha, evaluated 15 days later, read-out: Post-emergence activity AVEFA (100=total damage to plant; 0=no damage to plant)
# Outline: as §1
# [6] = system: Lolium perenne (LOLPE); test: Test Example 1 post-emergence herbicidal activity; conditions: 360 h, rate 125 g/ha, evaluated 15 days later, read-out: Post-emergence activity LOLPE (100=total damage to plant; 0=no damage to plant)
# Outline: as §1
# [7] = system: Alopecurus myosuroides (ALOMY); test: Test Example 1 pre-emergence herbicidal activity; conditions: Alopecurus myosuroides, 480 h, rate 250 g/ha, evaluated 20 days later, read-out: Pre-emergence activity ALOMY (100=total damage to plant; 0=no damage to plant)
# Outline: as §1
# [8] = system: Setaria faberi (SETFA); test: Test Example 1 pre-emergence herbicidal activity; conditions: Setaria faberi, 480 h, rate 250 g/ha, evaluated 20 days later, read-out: Pre-emergence activity SETFA (100=total damage to plant; 0=no damage to plant)
# Outline: as §1
# [9] = system: Echinochloa crus-galli (ECHCG); test: Test Example 1 pre-emergence herbicidal activity; conditions: Echinochloa crus-galli, 480 h, rate 250 g/ha, evaluated 20 days later, read-out: Pre-emergence activity ECHCG (100=total damage to plant; 0=no damage to plant)
# Outline: as §1
# [10] = system: Digitaria sanguinalis (DIGSA); test: Test Example 1 pre-emergence herbicidal activity; conditions: Digitaria sanguinalis, 480 h, rate 250 g/ha, evaluated 20 days later, read-out: Pre-emergence activity DIGSA (100=total damage to plant; 0=no damage to plant)
# Outline: as §1
# [11] = system: Avena fatua (AVEFA); test: Test Example 1 pre-emergence herbicidal activity; conditions: Avena fatua, 480 h, rate 250 g/ha, evaluated 20 days later, read-out: Pre-emergence activity AVEFA (100=total damage to plant; 0=no damage to plant)
# Outline: as §1
# [12] = system: Lolium perenne (LOLPE); test: Test Example 1 pre-emergence herbicidal activity; conditions: Lolium perenne, 480 h, rate 250 g/ha, evaluated 20 days later, read-out: Pre-emergence activity LOLPE (100=total damage to plant; 0=no damage to plant)
# Outline: as §1
SMILES,pest or weed control at 125 g/ha [1] [%],pest or weed control at 125 g/ha [2] [%],pest or weed control at 125 g/ha [3] [%],pest or weed control at 125 g/ha [4] [%],pest or weed control at 125 g/ha [5] [%],pest or weed control at 125 g/ha [6] [%],pest or weed control at 250 g/ha [7] [%],pest or weed control at 250 g/ha [8] [%],pest or weed control at 250 g/ha [9] [%],pest or weed control at 250 g/ha [10] [%],pest or weed control at 250 g/ha [11] [%],pest or weed control at 250 g/ha [12] [%]
Cc1cc(C)c(C2=C(O)[C@@H]3[C@@H]4O[C@@H](C[C@H]4C)[C@@H]3C2=O)c(C)c1 [Example T65],90,100,100,100,90,80,100,90,100,100,90,100
CSc1ccc([C@@H]2C[C@@H]3O[C@H]2[C@H]2C(O)=C(c4c(C)cc(C)cc4C)C(=O)[C@H]23)cc1 [Example T66],80,80,80,90,80,50,30,100,70,90,60,40
Cc1cc(C)c(C2=C(O)[C@@H]3[C@@H]4O[C@@H](C[C@H]4c4cccc(C(F)(F)F)c4)[C@@H]3C2=O)c(C)c1 [Example T85],90,70,100,20,20,70,40,70,70,60,60,70
Cc1cc(C)c(C2=C(O)[C@@H]3[C@@H]4O[C@@H](C[C@H]4c4cccc(C#N)c4)[C@@H]3C2=O)c(C)c1 [Example T89],80,90,100,90,80,80,20,30,20,30,60,40
Cc1cc(C)c(C2=C(O)[C@@H]3[C@@H]4O[C@@H](C[C@H]4c4ccc([N+](=O)[O-])cc4)[C@@H]3C2=O)c(C)c1 [Example T90],90,60,80,80,80,60,10,40,70,60,60,20
Cc1cc(C)c(C2=C(O)[C@@H]3[C@@H]4O[C@@H](C[C@H]4c4ccc(OC(F)(F)F)cc4)[C@@H]3C2=O)c(C)c1 [Example T91],90,100,100,100,90,50,20,50,50,70,50,20
Cc1cc(C)c(C2=C(O)[C@@H]3[C@@H]4O[C@@H](C[C@H]4c4ccc(C(F)(F)F)cc4)[C@@H]3C2=O)c(C)c1 [Example T92],100,100,100,100,100,50,20,70,90,70,60,30
Cc1cc(C)c(C2=C(O)[C@@H]3[C@@H]4O[C@@H](C[C@H]4c4ccc(C#N)cc4)[C@@H]3C2=O)c(C)c1 [Example T93],60,100,100,100,80,60,40,30,0,30,30,20
Cc1cc(C)c(C2=C(O)[C@@H]3[C@@H]4O[C@@H](C[C@@H]4C)[C@@H]3C2=O)c(C)c1 [Example T97],90,100,100,100,90,80,100,90,100,100,90,100
Cc1cc(C)c(C2=C(O)[C@@H]3[C@@H]4O[C@@H](C[C@H]4/C=C/c4ccccc4)[C@@H]3C2=O)c(C)c1 [Example T98],70,70,80,60,20,40,30,70,30,0,20,20
CC[C@@H]1C[C@@H]2O[C@H]1[C@H]1C(O)=C(c3c(C)cc(C)cc3C)C(=O)[C@H]12 [Example T106],90,90,100,80,80,80,90,100,100,100,90,100
CC[C@H]1C[C@@H]2O[C@H]1[C@H]1C(O)=C(c3c(C)cc(C)cc3C)C(=O)[C@H]12 [Example T107],100,100,100,100,90,90,90,100,100,100,90,100
Cc1cc(C)c(C2=C(O)[C@H]3[C@@H](C2=O)[C@]2(C)CC(C)[C@@]3(C)O2)c(C)c1 (stereo partly drawn) [Example T125],80,80,90,80,70,70,70,100,100,100,70,100
